Here are results for 4 compounds from patent US20140030712A1, “GENOMIC APPROACH TO THE IDENTIFICATION OF BIOMARKERS FOR ANTIBIOTIC RESISTANCE AND SUSCEPTIBILITY IN CLINICAL ISOLATES OF BACTERIAL PATHOGENS” (priority 2011, published 2014).

SMILES strings stand for the structures. ≈ marks a conversion by molar mass, not a printed value. Like-named read-outs stand apart in the source and are kept apart here.

Test [1] has as its system E. coli clinical isolates. Nature of the test: microbe, parasite or virus in culture. To be noted: Escherichia coli. It counts as cell-based. The procedure: Clinical isolate collection and antibiotic resistance determination. […] Hospital-derived qualitative antibiotic susceptibility status denoted each isolate as susceptible (S), intermediate resistant (I), or resistance (R) to the drugs listed in Table 1. Quantitative MICs for the fluoroquinolones ciprofloxacin (CIP), gatifloxacin (GAT), levofloxacin (LVX), and norfloxacin (NOR) were determined in our laboratory as described (LBB).

The test system of test [2] is E. coli BW25113 K-12 strain. To be noted: deletion of any of three cryptic prophages (rac, e14, CP4-6); cited from earlier work.
[3] abbreviates: pool H01, n=2 isolates, MDR ≧5, read-out: Fluoroquinolone MIC.
The mark [4] stands for this setting: pool H02, n=5 isolates, MDR ≧3, read-out: Fluoroquinolone MIC.
Setting [5] is: pool H03, n=5 isolates, MDR ≧3, read-out: Fluoroquinolone MIC.
[6] abbreviates: pool M01, n=10 isolates, MDR ≧3, read-out: Fluoroquinolone MIC.
Setting [7] is: pool M02, n=10 isolates, MDR ≧5, read-out: Fluoroquinolone MIC.
Where [8] appears, read: pool M03, n=13 isolates, no MDR, read-out: Fluoroquinolone MIC.
The mark [9] stands for this setting: pool M04, n=23 isolates, no MDR, read-out: Fluoroquinolone MIC.
The mark [10] stands for this setting: pool M05, n=16 isolates, MDR ≧5, read-out: Fluoroquinolone MIC.
The mark [11] stands for this setting: pool M06, n=13 isolates, MDR ≧3, read-out: Fluoroquinolone MIC.
Where [12] appears, read: pool M07, n=33 isolates, MDR ≧3, read-out: Fluoroquinolone MIC.
Where [13] appears, read: pool M08, n=3 isolates, No MDR, read-out: Fluoroquinolone MIC.
[14] abbreviates: pool M09, n=3 isolates, MDR ≧3, read-out: Fluoroquinolone MIC.
The mark [15] stands for this setting: pool M10, n=5 isolates, MDR ≧5, read-out: Fluoroquinolone MIC.
The mark [16] stands for this setting: pool M11, n=5 isolates, MDR ≧3, read-out: Fluoroquinolone MIC.
[17] abbreviates: pool S01, n=9 isolates, no MDR, read-out: Fluoroquinolone MIC.
Setting [18] is: pool S02, n=9 isolates, no MDR, read-out: Fluoroquinolone MIC.

`CCn1cc(C(=O)O)c(=O)c2cc(F)c(N3CCNCC3)cc21` [NOR, norfloxacin]: the MIC in test [1] (setting [3]) is 1000 µg/mL (≈ 3130 µM); in test [1] (setting [4]), 400 to 1000 µg/mL (≈ 1250 to 3130 µM); in test [1] (setting [5]), 400 to 1000 µg/mL (≈ 1250 to 3130 µM); in test [1] (setting [6]) it was 200 to 700 µg/mL (≈ 626 to 2190 µM); in test [1] (setting [7]) it was 200 to 700 µg/mL (≈ 626 to 2190 µM); in test [1] (setting [8]), 50 to 200 µg/mL (≈ 157 to 626 µM). The MIC in test [1] (setting [9]) lay in the range of 200 to 700 µg/mL (≈ 626 to 2190 µM); in test [1] (setting [10]), 50 to 300 µg/mL (≈ 157 to 939 µM); in test [1] (setting [11]), 200 to 400 µg/mL (≈ 626 to 1250 µM); in test [1] (setting [12]), 50 to 200 µg/mL (≈ 157 to 626 µM); in test [1] (setting [13]) it was 100 to 200 µg/mL (≈ 313 to 626 µM); in test [1] (setting [14]) it was 100 to 200 µg/mL (≈ 313 to 626 µM). In addition, the MIC in test [1] (setting [15]) was 50 to 500 µg/mL (≈ 157 to 1570 µM); in test [1] (setting [16]) it was 50 to 200 µg/mL (≈ 157 to 626 µM); in test [1] (setting [17]), 0.03 to 0.09 µg/mL (≈ 0.0939 to 0.282 µM); in test [1] (setting [18]), 0.04 to 0.34 µg/mL (≈ 0.125 to 1.06 µM); in test [1] (pools denoted "H", read-out: norfloxacin MICs), more than 1000 µg/mL.

For `C[C@H]1COc2c(N3CCN(C)CC3)c(F)cc3c(=O)c(C(=O)O)cn1c23` [LVX, levofloxacin], the MIC was 10 to 200 µg/mL (≈ 27.7 to 553 µM) in test [1] (setting [3]); 40 to 50 µg/mL (≈ 111 to 138 µM) in test [1] (setting [4]); 100 µg/mL (≈ 277 µM) in test [1] (setting [5]); 20 to 50 µg/mL (≈ 55.3 to 138 µM) in test [1] (setting [6]); 20 to 50 µg/mL (≈ 55.3 to 138 µM) in test [1] (setting [7]); 8 to 30 µg/mL (≈ 22.1 to 83 µM) in test [1] (setting [8]). In addition, the MIC fell in the range of 50 to 100 µg/mL (≈ 138 to 277 µM) in test [1] (setting [9]); 30 to 50 µg/mL (≈ 83 to 138 µM) in test [1] (setting [10]); 30 to 100 µg/mL (≈ 83 to 277 µM) in test [1] (setting [11]); 10 to 20 µg/mL (≈ 27.7 to 55.3 µM) in test [1] (setting [12]); 50 to 200 µg/mL (≈ 138 to 553 µM) in test [1] (setting [13]); 10 to 20 µg/mL (≈ 27.7 to 55.3 µM) in test [1] (setting [14]). For the same compound, the MIC in test [1] (setting [15]) lay within 30 to 100 µg/mL (≈ 83 to 277 µM); in test [1] (setting [16]), 20 to 50 µg/mL (≈ 55.3 to 138 µM); in test [1] (setting [17]), 0.02 to 0.07 µg/mL (≈ 0.0553 to 0.194 µM); in test [1] (setting [18]), 0.03 to 0.17 µg/mL (≈ 0.083 to 0.47 µM).

On to `CCn1cc(C(=O)O)c(=O)c2ccc(C)nc21` [nalidixic acid], for which the “nalidixic acid MICs” value in test [2] is “lowered”.

Take `COc1c(N2CCNC(C)C2)c(F)cc2c(=O)c(C(=O)O)cn(C3CC3)c12` (centres unmarked) [GAT, gatifloxacin]: the MIC in test [1] (setting [3]) lay in the range of 10 to 30 µg/mL (≈ 26.6 to 79.9 µM); in test [1] (setting [4]), 10 to 30 µg/mL (≈ 26.6 to 79.9 µM); in test [1] (setting [5]), 50 to 200 µg/mL (≈ 133 to 533 µM); in test [1] (setting [6]) it was 10 to 30 µg/mL (≈ 26.6 to 79.9 µM); in test [1] (setting [7]) it was 10 to 30 µg/mL (≈ 26.6 to 79.9 µM); in test [1] (setting [8]), 8 to 30 µg/mL (≈ 21.3 to 79.9 µM). Moreover, the MIC in test [1] (setting [9]) is 30 to 100 µg/mL (≈ 79.9 to 266 µM); in test [1] (setting [10]), 10 to 20 µg/mL (≈ 26.6 to 53.3 µM); in test [1] (setting [11]), 10 to 20 µg/mL (≈ 26.6 to 53.3 µM); in test [1] (setting [12]) it was 10 µg/mL (≈ 26.6 µM); in test [1] (setting [13]), 100 to 300 µg/mL (≈ 266 to 799 µM); in test [1] (setting [14]), 20 µg/mL (≈ 53.3 µM). In addition, the MIC was 20 to 100 µg/mL (≈ 53.3 to 266 µM) in test [1] (setting [15]), 10 to 50 µg/mL (≈ 26.6 to 133 µM) in test [1] (setting [16]), 0.01 to 0.02 µg/mL (≈ 0.0266 to 0.0533 µM) in test [1] (setting [17]) and 0.01 to 0.09 µg/mL (≈ 0.0266 to 0.24 µM) in test [1] (setting [18]).
